The experiment concerns the target T1, PARP-1 enzyme (Homo sapiens, UniProt P09874).
T1 construct: made in house
In words: In vitro Scintillation Proximity Assay (SPA) for PARP-1 inhibitory activity. The note with it: nicked DNA activated PARP-1, [3H]-NAD+, biotinylated histones; read-out: In vitro SPA pIC50 (converted). Type of experiment: biochemical. On the procedure: Compounds of the present invention were tested in an in vitro assay based on SPA technology (proprietary to Amersham Pharmacia Biotech).
In principle, the assay relies upon the well established SPA technology for the detection of poly(ADP-ribosyl)ation of biotinylated target proteins, i.e histones. This ribosylation is induced using nicked DNA activated PARP-1 enzyme and [^3H]-nicotinamide adenine dinucleotide ([^3H]-NAD^+) as ADP-ribosyl donor.
As inducer of PARP-1 enzyme activity, nicked DNA was prepared. For this, 25 mg of DNA (supplier: Sigma) was dissolved in 25 ml DNAse buffer (10 mM Tris-HCl, pH 7.4; 0.5 mg/ml Bovine Serum Albumine (BSA); 5 mM MgCl2.6H2O and 1 mM KCl) to which 50 μl DNAse solution (1 mg/ml in 0.15 M NaCl) was added. After an incubation of 90 min. at 37° C., the reaction was terminated by adding 1.45 g NaCl, followed by a further incubation at 58° C. for 15 min. The reaction mixture was cooled on ice and dialysed at 4° C. for respectively 1.5 and 2 hours against 1.5 l of 0.2 M KCl, and twice against 1.5 l of 0.01 M KCl for 1.5 and 2 h respectively. The mixture was aliquoted and stored at −20° C. Histones (1 mg/ml, type II-A, supplier: Sigma) were biotinylated using the biotinylation kit of Amersham and stored aliquoted at −20° C. A stock solution of 100 mg/ml SPA poly(vinyl toluene) (PVT) beads (supplier: Amersham) was made in PBS. A stock solution of [^3]H-NAD^+ was made by adding 120 μl of [^3H]-NAD^+ (0.1 mCi/ml, supplier: NEN) to 6 ml incubation buffer (50 mM Tris/HCl, pH 8; 0.2 mM DTT; 4 mM MgCl2). A solution of 4 mM NAD^+ (supplier: Roche) was made in incubation buffer (from a 100 mM stock solution in water stored at −20° C.). The PARP-1 enzyme was produced using art known techniques, i.e. cloning and expression of the protein starting from human liver cDNA. Information concerning the used protein sequence of the PARP-1 enzyme including literature references can be found in the Swiss-Prot database under primary accession number P09874. Biotinylated histones and PVT-SPA beads were mixed and pre-incubated for 30 min. at room temperature. PARP-1 enzyme (concentration was lot dependent) was mixed with the nicked DNA and the mixture was pre-incubated for 30 min. at 4° C. Equal parts of this histones/PVT-SPA beads solution and PARP-1 enzyme/DNA solution were mixed and 75 μl of this mixture together with 1 μl of compound in DMSO and 25 μl of [^3H]-NAD^+ was added per well into a 96-well microtiterplate. The final concentrations in the incubation mixture were 2 μg/ml for the biotinylated histones, 2 mg/ml for the PVT-SPA beads, 2 μg/ml for the nicked DNA and between 5-10 μg/ml for the PARP-1 enzyme. After incubation of the mixture for 15 min. at room temperature, the reaction was terminated by adding 100 μl of 4 mM NAD^+ in incubation buffer (final concentration 2 mM) and plates were mixed.
The beads were allowed to sediment for at least 15 min. and plates transferred to a TopCountNXT™ (Packard) for scintillation counting, values were expressed as counts per minute (cpm). For each experiment, controls (containing PARP-1 enzyme and DMSO without compound), a blank incubation (containing DMSO but no PARP-1 enzyme or compound) and samples (containing PARP-1 enzyme and compound dissolved in DMSO) were run in parallel. All compounds tested were dissolved and eventually further diluted in DMSO. In first instance, compounds were tested at a concentration of 10^−5 M or 10^−6M. […] In each test, the blank value was subtracted from both the control and the sample values. The control sample represented maximal PARP-1 enzyme activity. For each sample, the amount of cpm was expressed as a percentage of the mean cpm value of the controls. When appropriate, IC50-values (concentration of the drug, needed to reduce the PARP-1 enzyme activity to 50% of the control) were computed using linear interpolation between the experimental points just above and below the 50% level. […]

Molecules are shown by their SMILES.

T1 sequence (P09874 whole entry): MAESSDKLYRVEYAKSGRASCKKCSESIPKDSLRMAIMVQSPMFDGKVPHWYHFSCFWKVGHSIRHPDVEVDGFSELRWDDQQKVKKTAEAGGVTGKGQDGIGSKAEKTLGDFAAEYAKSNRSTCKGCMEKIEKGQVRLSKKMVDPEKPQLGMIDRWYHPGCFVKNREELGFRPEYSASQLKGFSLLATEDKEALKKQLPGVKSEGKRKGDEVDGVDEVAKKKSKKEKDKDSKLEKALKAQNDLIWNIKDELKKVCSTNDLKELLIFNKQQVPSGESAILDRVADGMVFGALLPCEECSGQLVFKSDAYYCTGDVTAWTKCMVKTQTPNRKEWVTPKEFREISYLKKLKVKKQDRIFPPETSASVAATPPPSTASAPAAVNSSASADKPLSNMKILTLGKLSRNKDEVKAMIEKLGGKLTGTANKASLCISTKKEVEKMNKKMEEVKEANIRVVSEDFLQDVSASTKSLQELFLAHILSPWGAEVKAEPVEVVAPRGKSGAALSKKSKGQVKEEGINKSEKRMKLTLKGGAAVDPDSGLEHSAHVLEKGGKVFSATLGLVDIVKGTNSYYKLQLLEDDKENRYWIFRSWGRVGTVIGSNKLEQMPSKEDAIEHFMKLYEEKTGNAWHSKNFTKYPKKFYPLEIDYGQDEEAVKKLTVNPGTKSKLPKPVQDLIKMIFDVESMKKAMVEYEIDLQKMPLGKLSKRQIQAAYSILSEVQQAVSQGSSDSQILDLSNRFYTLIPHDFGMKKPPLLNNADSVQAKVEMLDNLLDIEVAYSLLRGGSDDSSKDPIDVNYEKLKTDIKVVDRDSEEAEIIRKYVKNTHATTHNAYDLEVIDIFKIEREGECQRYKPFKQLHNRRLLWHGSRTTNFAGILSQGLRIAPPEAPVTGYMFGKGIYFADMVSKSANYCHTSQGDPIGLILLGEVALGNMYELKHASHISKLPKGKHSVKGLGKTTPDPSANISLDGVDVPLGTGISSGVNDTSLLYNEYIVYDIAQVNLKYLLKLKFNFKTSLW

`CCc1cc2cc(C(c3ccc4c(c3)OCCO4)C3CC[N+](C/C=C/c4ccccc4)(C/C=C/c4ccccc4)CC3)ccc2[nH]c1=O` (stereo not drawn) [Compound 15]: the IC50 is 119 nM.

As for `CCc1cc2cc(C(c3ccc4c(c3)OCCO4)N3CCC(CCN4CCCCC4)CC3)ccc2[nH]c1=O` (stereo not drawn) [Compound 31], the IC50 is 21.3 nM.

With `O=c1[nH]c2ccc(C(NCCCN3CCCCC3)c3cccc(C(F)(F)F)c3)cc2c2ccccc12` (stereo not drawn) [Compound 32], the IC50 was 74.6 nM.

As for `CCc1cc2cc(C(c3ccc4c(c3)OCCO4)N3CCC(NCCOC)CC3)ccc2[nH]c1=O` (stereo not drawn) [Compound 33], the IC50 was 25.7 nM.

As for `CCc1cc2cc(C(c3cccc(OC(F)(F)F)c3)N3CCC(NCCOC)CC3)ccc2[nH]c1=O` (stereo not drawn) [Compound 34], the IC50 was 525 nM.

As to `CCc1cc2cc(C(c3ccc(C(F)(F)F)cc3F)N3CCC(NCCOC)CC3)ccc2[nH]c1=O` (stereo not drawn) [Compound 35], the IC50 was 802 nM.

For the compound `CCc1cc2cc(C(c3ccc(OCCCN(C)C)cc3)N3CCC(NCCOC)CC3)ccc2[nH]c1=O` (stereo not drawn) [Compound 36], the IC50 is 299 nM.

As to `CCc1cc2cc(C(c3ccc4c(c3)OCCO4)N3CCN(CCN4CCCCC4)CC3)ccc2[nH]c1=O` (stereo not drawn) [Compound 40], the IC50 is 23.7 nM.

As to `CCc1cc2cc(C(c3ccc4c(c3)OCCO4)N3CCN(CC4CCCCC4)CC3)ccc2[nH]c1=O` (stereo not drawn) [Compound 41], the IC50 was 122 nM.

With `CCc1cc2cc(C(c3ccc4c(c3)OCO4)n3nc(C4CCNCC4)c4ccc(F)cc43)ccc2[nH]c1=O` (stereo not drawn) [Compound 42], the IC50 was 948 nM.

In the case of `CCc1cc2cc(C(c3ccc4c(c3)OCCO4)N3CCN(CCN4CCCCCC4)CC3)ccc2[nH]c1=O` (stereo not drawn) [Compound 43], the IC50 is 21.2 nM.

Consider `CCc1cc2cc(C(NCCN3CCC(C(=O)c4ccc(F)cc4)CC3)c3ccc4c(c3)OCCO4)ccc2[nH]c1=O` (stereo not drawn) [Compound 44], for which the IC50 was 92.3 nM.

With `O=c1[nH]c2ccc(C(NCCN3CCC(c4n[nH]c5cc(F)ccc45)CC3)c3ccc4c(c3)OCCO4)cc2c2ccccc12` (stereo not drawn) [Compound 45], the IC50 was 45.6 nM.

As to `CCc1cc2cc(C(c3ccc4c(c3)OCCO4)N3CCC(c4n[nH]c5cc(F)ccc45)CC3)ccc2[nH]c1=O` (stereo not drawn) [Compound 46], the IC50 was 405 nM.

As to `O=c1[nH]c2ccc(C(NCCN3CCC(c4n[nH]c5cc(F)ccc45)CC3)c3cccc(C(F)(F)F)c3)cc2c2ccccc12` (stereo not drawn) [Compound 47], the IC50 was 516 nM.

With `COCCNC1CCN(C(c2cccc(C(F)(F)F)c2)c2ccc3[nH]c(=O)c4ccccc4c3c2)CC1` (stereo not drawn) [Compound 48], the IC50 was 190 nM.

In the case of `CN(CCCNC(c1cccc(C(F)(F)F)c1)c1ccc2[nH]c(=O)c3ccccc3c2c1)Cc1ccccc1` (stereo not drawn) [Compound 49], the IC50 was 406 nM.

Regarding `CCc1nc2cc(C(NCCN3CCC(C(=O)c4ccc(F)cc4)CC3)c3ccccc3)ccc2[nH]c1=O` (stereo not drawn) [Compound 50], the IC50 was 678 nM.

As for `CCc1nc2cc(C(NCCCN3CCCCC3)c3ccccc3)ccc2[nH]c1=O` (stereo not drawn) [Compound 51], the IC50 was 459 nM.

`CCc1cc2cc(C(NCCCN3CCCCC3)c3ccc4c(c3)OCCO4)ccc2[nH]c1=O` (stereo not drawn) [Compound 52]: the IC50 is 54.6 nM.

For the compound `CCc1cc2cc(C(NC3CCCN(Cc4ccccc4)C3)c3ccc4c(c3)OCCO4)ccc2[nH]c1=O` (stereo not drawn) [Compound 53], the IC50 is 152 nM.

`CCc1cc2cc(C(c3ccc4c(c3)OCO4)N3CCC(NCCOC)CC3)ccc2[nH]c1=O` (stereo not drawn) [Compound 54]: the IC50 was 101 nM.

On to `CCc1cc2cc(C(OCCN(C)C)c3ccc4c(c3)OCCO4)ccc2[nH]c1=O` (stereo not drawn) [Compound 55], for which the IC50 was 18.4 nM.

Take `CCc1nc2cc(C(NCCCN(C)Cc3ccccc3)c3ccccc3)ccc2[nH]c1=O` (stereo not drawn) [Compound 56]: the IC50 is 511 nM.

As for `CCc1cc2cc(C(NCCCN(C)Cc3ccccc3)c3ccc4c(c3)OCCO4)ccc2[nH]c1=O` (stereo not drawn) [Compound 57], the IC50 is 33.6 nM.

Take `CCc1nc2cc(C(c3ccccc3)N3CCC(NCCOC)CC3)ccc2[nH]c1=O` (stereo not drawn) [Compound 58]: the IC50 is 582 nM.

As to `CCc1cc2cc(C(c3cccc(F)c3)N3CCC(NCCOC)CC3)ccc2[nH]c1=O` (stereo not drawn) [Compound 59], the IC50 is 217 nM.

On to `CCc1cc2cc(C(c3ccc(Cl)cc3)N3CCN(C)CC3)ccc2[nH]c1=O` (stereo not drawn) [Compound 60], for which the IC50 is 296 nM.

Consider `CCc1cc2cc(C(c3ccc4ccccc4c3)N3CCC(NCCOC)CC3)ccc2[nH]c1=O` (stereo not drawn) [Compound 61], for which the IC50 was 276 nM.

On to `CCc1cc2cc(C(c3ccccc3F)N3CCC(NCCOC)CC3)ccc2[nH]c1=O` (stereo not drawn) [Compound 62], for which the IC50 is 312 nM.

In the case of `CCc1cc2cc(C(c3ccc(Cl)c(F)c3)N3CCC(NCCOC)CC3)ccc2[nH]c1=O` (stereo not drawn) [Compound 63], the IC50 is 361 nM.

For the compound `CCc1cc2cc(C(c3ccc(C)cc3C)N3CCC(NCCOC)CC3)ccc2[nH]c1=O` (stereo not drawn) [Compound 64], the IC50 was 532 nM.

As for `CCc1cc2cc(C(c3ccc(N(C)C)cc3)N3CCC(NCCOC)CC3)ccc2[nH]c1=O` (stereo not drawn) [Compound 65], the IC50 is 292 nM.

Regarding `CCc1cc2cc(C(c3ccc(Cl)cc3Cl)N3CCC(NCCOC)CC3)ccc2[nH]c1=O` (stereo not drawn) [Compound 66], the IC50 was 417 nM.

Regarding `CCc1cc2cc(C(c3ccc(F)cc3)N3CCC(NCCOC)CC3)ccc2[nH]c1=O` (stereo not drawn) [Compound 67], the IC50 was 208 nM.

As for `CCc1cc2cc(C(c3ccc(F)cc3F)N3CCC(NCCOC)CC3)ccc2[nH]c1=O` (stereo not drawn) [Compound 68], the IC50 is 373 nM.

For the compound `CCc1cc2cc(C(c3cc(C(F)(F)F)ccc3Cl)N3CCC(NCCOC)CC3)ccc2[nH]c1=O` (stereo not drawn) [Compound 69], the IC50 was 456 nM.

In the case of `CCc1cc2cc(C(c3ccc(C(F)(F)F)cc3)N3CCC(NCCOC)CC3)ccc2[nH]c1=O` (stereo not drawn) [Compound 70], the IC50 is 762 nM.

Regarding `CCc1cc2cc(C(OCCN(C)C)c3cccc(Cl)c3)ccc2[nH]c1=O` (stereo not drawn) [Compound 71], the IC50 was 177 nM.

In the case of `CCc1cc2cc(C(c3c(Cl)cccc3Cl)N3CCC(NCCOC)CC3)ccc2[nH]c1=O` (stereo not drawn) [Compound 73], the IC50 is 124 nM.

As to `CCc1cc2cc(C(c3ccccc3Cl)N3CCC(NCCOC)CC3)ccc2[nH]c1=O` (stereo not drawn) [Compound 74], the IC50 was 211 nM.

For the compound `CCc1cc2cc(C(c3cccc(Cl)c3)N3CCN(C)CC3)ccc2[nH]c1=O` (stereo not drawn) [Compound 75], the IC50 was 339 nM.

With `CCc1cc2cc(C(c3cccc4ccccc34)N3CCC(NCCOC)CC3)ccc2[nH]c1=O` (stereo not drawn) [Compound 76], the IC50 is 411 nM.

`CCc1cc2cc(C(c3ccccc3C)N3CCC(NCCOC)CC3)ccc2[nH]c1=O` (stereo not drawn) [Compound 82]: the IC50 was 356 nM.

With `CCc1cc2cc(C(c3ccc(Cl)c(Cl)c3)N3CCC(NCCOC)CC3)ccc2[nH]c1=O` (stereo not drawn) [Compound 83], the IC50 was 498 nM.

As to `CCc1nc2cc(C(c3ccccc3)N3CCC(=O)CC3)ccc2[nH]c1=O` (stereo not drawn) [Compound 84], the IC50 was 318 nM.

As for `CCc1cc2cc(C(CCN(C)C)c3ccc4c(c3)OCCO4)ccc2[nH]c1=O` (stereo not drawn) [Compound 90], the IC50 is 8.43 nM.

Turning to `O=CNC(c1cccc(C(F)(F)F)c1)c1ccc2[nH]c(=O)c3ccccc3c2c1` (stereo not drawn) [Compound 97], the IC50 was 31 nM.

For the compound `CCc1nc2cc(CC(O)c3ccccc3)ccc2[nH]c1=O` (stereo not drawn) [Compound 108], the IC50 is 406 nM.

On to `CCc1nc2cc(CC(=O)c3ccccc3)ccc2[nH]c1=O` [Compound 116], for which the IC50 is 564 nM.

As for `CCc1nc2cc(CC(c3ccc(Cl)cc3)N3CCN(C4CCCCC4)CC3)ccc2[nH]c1=O` (stereo not drawn) [Compound 117], the IC50 was 710 nM.

The values above are taken from patent publication US8071612B2, “6-alkenyl and 6-phenylalkyl substituted 2-quinolinones and 2-quinoxalinones as poly(ADP-ribose) polymerase inhibitors” (Janssen Pharmaceutica, NV, priority 2004, dated 2011).
